Experimental findings from patent US9085608B2, “Treatment of biofilms” (LYTIX BIOPHARMA AS, priority 2008, dated 2015) are described below.

In brackets after ≈: the same amount, converted by molar mass. Entries after “also recorded” stand apart in the source; their conditions may differ. Like-named read-outs stand apart in the source and are kept apart here. Some results are limits rather than exact numbers.

Experiment [1] concerns 24 h old biofilm of 6 different staphylococcal strains. Kind of experiment: Biofilm metabolic activity, Alamar blue reduction. Conditions: 50 mg/L, 24 h treatment; all biofilms except S. aureus PIA 9. In kind it is cell-based, S. epidermidis, S. haemolyticus, S. aureus. In general terms: The colour change of resazurin is a common sign of viable cells or microbes.
Method: Biofilm formation was induced in 96-well flat bottom microtitre plates (Nunclon Surface, NUNC, Roskilde, Denmark). First, overnight cultures were diluted 1:100 in MHIIB (S. epidermidis and S. haemolyticus) or tryptic soy broth (TSB) with 5% glucose and 5% NaCl (S. aureus). Two hundred of this bacterial suspension (10^7 cfu/ml) was added to each well and incubated for 24 h at 37° C. After 24 h the wells were carefully washed twice with phosphate-buffered saline (PBS) to remove planktonic bacteria. The washing procedure was evaluated by measuring metabolic activity of the PBS with the Alamar blue method, described in detail below.
The washed biofilms were subjected to treatment with antibiotics or SAMPs at different concentrations. Stock solutions of the tetracycline (Sigma Aldrich), vancomycin (Alpharma) and linezolid (Pfizer) were diluted in MHIIB to 5 mg/L, 50 mg/L and 500 mg/L, and rifampicin (Sigma Aldrich) was diluted in MHIIB to 0.01 mg/L, 0.1 mg/L and 1 mg/L. Trifluoroacetate salts of the SAMPs were dissolved in sterile water and diluted to 5 mg/L, 50 mg/L and 500 mg/L in MHIIB. 200 μl of antibiotics or SAMPs, in different concentrations, were added to each well and incubated for 24 h at 37° C. Positive controls were untreated biofilms only added 200 μl MHIIB. Negative controls were only 200 μl MHIIB, with no bacteria added.
We quantified the metabolic activity of biofilm with a slightly modified method previously described by Pettit et al. in Antimicrob. […] Briefly, the wells were washed twice with PBS. We then added 250 μl MHIIB with 5% Alamar blue (AB; Invitrogen, Carlsbad, Calif., USA) to each well. AB is a redox indicator which both fluoresces and changes colour in response to chemical reduction. The extent of reduction is a reflection of bacterial cell viability. After 1 h incubation at 37° C., absorbance was recorded at 570 and 600 nm using Versamax tuneable microplate reader (Molecular Devices, Sunnyvale, Calif., USA). […] The highest and lowest value of each run was excluded from the analyses, and the remaining 18 values were averaged.
The percent reduction of AB was calculated according to the manufacturer's formula (Invitrogen, Carlsbad, USA). We calculated mean and standard deviations (SD) of all repeated measurements.
We defined two levels of antimicrobial suppression of metabolic activity.
Experiment [2] has as its system Staphylococcus haemolyticus TUH 51-03. Description: microbe, parasite or virus in culture. As to the method: (§1) Bacteria were grown overnight at 37° C. in cation adjusted Mueller-Hinton II Broth (MHIIB).
(§2) We determined the MICs of oxacillin, gentamicin, tetracycline, vancomycin and linezolid using E-test (AB Biodisk, Solna, Sweden) and MICs of rifampicin using broth microdilution assay. Breakpoints were interpreted according to EUCAST criteria. […] All 3 SAMPs are tripeptides with two arginine residues providing their cationic moieties (FIG. 1). The lipophilic bulk is provided by a modified tryptophane derivate. […] The molecular weights of the SAMPs are in the range of 700-800 Dalton.

Experiment [3] has as its system Staphylococcus haemolyticus TUH 51-07. Description: microbe, parasite or virus in culture. As to the method: as §1, §2
Experiment [4] has as its system Staphylococcus aureus PIA 9. Description: microbe, parasite or virus in culture. Here is the method:
as §1, §2

Experiment [5] deals with Staphylococcus epidermidis TUH 08-16. Description: microbe, parasite or virus in culture. Here is the method: as §1, §2
In experiment [6] the test system is Staphylococcus epidermidis RP62A ATCC 35984. Description: microbe, parasite or virus in culture. As to the method: as §1, §2
Experiment [7] relates to Staphylococcus aureus PIA90. Kind of experiment: microbe, parasite or virus in culture. Here is the method:
as §1, §2

For experiment [8], the system named is S. haemolyticus TUH 51-07 biofilm. Description: Biofilm imaging, LIVE/DEAD staining and confocal laser scanning microscopy. In kind it is cell-based, Staphylococcus haemolyticus. Conditions: 24 h treatment. Here is the method: One ml aliquots of MHIIB-diluted overnight culture was used to grow S. haemolyticus TUH 51-07 biofilm on plastic coverslides (Thermanox, cellculture treated on one side, NUNC, Roskilde, Denmark) in 24-well dishes (Falcon 3047, Becton Dickinson, NJ, USA) for 24 h. The coverslides were then washed carefully with PBS, moved to a new plate and treated for 24 h with tetracycline 50 mg/L and 500 mg/L, vancomycin 50 mg/L and 500 mg/L, or Compound A 50 mg/L and 500 mg/L. The coverslides were washed again with […] and stained with a LIVE/DEAD kit (Invitrogen Molecular Probes, Eugene, Oreg., USA) following the manufacturer's instructions. This stain contains SYTO 9 (green fluorescent) and propidium iodide (PI; red fluorescent), both binding to DNA. When used alone, the SYTO 9 generally stains all bacteria in a population; both those with intact and those with damaged membranes. In contrast, PI penetrates only bacteria with damaged membranes, causing a reduction in the SYTO 9 stain green fluorescence when both dyes are present. We examined treated and untreated biofilms with a Leica TCS SP5 (Leica Microsystems CMS Gmbh, Mannheim, Germany) confocal laser scanning microscope (CLSM). Images were obtained using a 63×1.2 NA HCX PL APO water immersion lens. For detection of SYTO9 (green channel), we used the 488 nm line of the argon laser and a detection bandwidth of 495-515 nm. For PI detection (red channel), we used the 561 nm line and a detection bandwidth of 615-660 nm. The two fluorescent-signals were collected sequentially at 400 Hz. Image analyses and export was performed in Leica LAS AF version 1.8.2.

Experiment [9] has as its system six staphylococcal strains (2 S. epidermidis, 2 S. haemolyticus and 2 S. aureus). Kind of experiment: Susceptibility testing under planktonic growth condition, EUCAST breakpoints. In kind it is cell-based. Conditions: EUCAST criteria. As to the method: The six staphylococcal strains (2 S. epidermidis, 2 S. haemolyticus and 2 S. aureus) used in this study were selected based on their previously known biofilm forming capacity (Table 1).
as §1
We determined the MICs of oxacillin, gentamicin, tetracycline, vancomycin and linezolid using E-test (AB Biodisk, Solna, Sweden) and MICs of rifampicin using broth microdilution assay. Breakpoints were interpreted according to EUCAST criteria. We selected 3 different SAMPs (Compounds A, B and C; Lytix Biopharma, Tromsø, Norway—see FIG. 1) based on previously known antimicrobial activities, and determined their exact MICs with broth microdilution assay. All 3 SAMPs are tripeptides with two arginine residues providing their cationic moieties (FIG. 1). The lipophilic bulk is provided by a modified tryptophane derivate. The difference between the compounds is the size of the C-terminal modification; Compound A has the smallest and Compound B has the largest C-terminal modification (FIG. 1). The molecular weights of the SAMPs are in the range of 700-800 Dalton.

[10] abbreviates: planktonic, SE RP62A ATCC 35984.
Where [11] appears, read: Staphylococcus haemolyticus, TUH5103.
[12] abbreviates: Staphylococcus haemolyticus, TUH5107.
Where [13] appears, read: Staphylococcus epidermidis, TUH0816.
[14] abbreviates: Staphylococcus epidermidis, ATCC35984.
Setting [15] is: the four other staphylococcal strains.

As to `CC(C)NC(=O)[C@H](CCCNC(=N)N)NC(=O)[C@H](Cc1c(C(C)(C)C)[nH]c2c(C(C)(C)C)cc(C(C)(C)C)cc12)NC(=O)[C@@H](N)CCCNC(=N)N` [Compound A], in [1], the “suppression of metabolic activity (AB reduction)” value (shortened to “suppression … (AB reduction)”) was “strong or complete suppression”. The MIC in experiment [2] was 8 µg/mL (≈ 11 µM); in experiment [3], 8 µg/mL (≈ 11 µM); in experiment [4] (PIA 9) it was 8 µg/mL (≈ 11 µM); in [5] (TUH 08-16), 4 µg/mL (≈ 5.51 µM); in experiment [6] (ATCC 35984), 8 µg/mL (≈ 11 µM); in experiment [7] (PIA90), 8 µg/mL (≈ 11 µM). The results for the “LIVE/DEAD staining of biofilm cells (CLSM)” value in experiment [8] (50 mg/L) and in [8] (500 mg/L) were “almost all cells are stained red” and “almost all cells are stained red; also recorded: membrane damage of all cells”, respectively.

`CC(C)(C)c1cc(C(C)(C)C)c2[nH]c(C(C)(C)C)c(C[C@H](NC(=O)[C@@H](N)CCCNC(=N)N)C(=O)N[C@@H](CCCNC(=N)N)C(=O)NCCc3ccccc3)c2c1` [Compound B]: in [1], the “suppression … (AB reduction)” value is given as “strong or complete suppression”. The MIC in experiment [2] (planktonic, SH TUH 51-03) was 4 µg/mL (≈ 5.08 µM); in [3] (planktonic, SH TUH 51-07), 4 µg/mL (≈ 5.08 µM); in experiment [4] (planktonic, SA PIA 9) it was 2 µg/mL (≈ 2.54 µM); in experiment [5] (planktonic, SE TUH 08-16), 2 µg/mL (≈ 2.54 µM); in [6] (setting [10]) it was 4 µg/mL (≈ 5.08 µM); in experiment [7] (planktonic, SA PIA90), 2 µg/mL (≈ 2.54 µM).

Consider `CCCCCCNC(=O)[C@H](CCCNC(=N)N)NC(=O)[C@H](Cc1c(C(C)(C)C)[nH]c2c(C(C)(C)C)cc(C(C)(C)C)cc12)NC(=O)[C@@H](N)CCCNC(=N)N` [Compound C], for which, in experiment [1], the “suppression … (AB reduction)” value is given as “strong or complete suppression”. For the same molecule, the MIC in experiment [2] came to 4 µg/mL (≈ 5.21 µM); in [3] it was 4 µg/mL (≈ 5.21 µM); in experiment [4] (PIA 9), 4 µg/mL (≈ 5.21 µM); in experiment [5] (TUH 08-16), 2 µg/mL (≈ 2.6 µM); in [6] (ATCC 35984), 4 µg/mL (≈ 5.21 µM); in [7] (PIA90) it was 2 µg/mL (≈ 2.6 µM).

With `CC(=O)NC[C@H]1CN(c2ccc(N3CCOCC3)c(F)c2)C(=O)O1` [LZD, linezolid], the MIC in [2] (setting [11]) is 0.5 µg/mL (≈ 1.48 µM); in [3] (setting [12]), 0.5 µg/mL (≈ 1.48 µM); in experiment [4] (Staphylococcus aureus, PIA9) it was 2 µg/mL (≈ 5.93 µM); in [5] (setting [13]) it was 2 µg/mL (≈ 5.93 µM); in experiment [6] (setting [14]), 1 µg/mL (≈ 2.96 µM); in experiment [7] (Staphylococcus aureus, PIA90), 1 µg/mL (≈ 2.96 µM). Further, the “susceptibility under planktonic growth” value in experiment [9] (all 6 strains) is reported as “susceptible; also recorded: sensitive”.

Turning to `Cc1onc(-c2ccccc2)c1C(=O)N[C@@H]1C(=O)N2[C@@H]1SC(C)(C)[C@@H]2C(=O)O` [OXA, oxacillin], the MIC in experiment [2] (planktonic, SH TUH 51-03) is more than 256 µg/mL; in experiment [3] (planktonic, SH TUH 51-07), more than 256 µg/mL; in experiment [4] (planktonic, SA PIA 9), 1 µg/mL (≈ 2.49 µM); in experiment [5] (planktonic, SE TUH 08-16), 16 µg/mL (≈ 39.9 µM); in experiment [6] (setting [10]), 8 µg/mL (≈ 19.9 µM); in [7] (planktonic, SA PIA90), 1 µg/mL (≈ 2.49 µM). In addition, the “susceptibility under planktonic growth” value in experiment [9] (setting [15]) is given as “resistant”; in experiment [9] (the two S. aureus strains) it was “susceptible”.

On to `CO[C@H]1/C=C/O[C@@]2(C)Oc3c(C)c(O)c4c(O)c(c(/C=N/N5CCN(C)CC5)c(O)c4c3C2=O)NC(=O)/C(C)=C\C=C\[C@H](C)[C@H](O)[C@@H](C)[C@@H](O)[C@@H](C)[C@H](OC(C)=O)[C@@H]1C` [RIF, rifampicin], for which the MIC in experiment [2] (setting [11]) was less than 0.016 µg/mL; in [3] (setting [12]), 0.016 µg/mL (≈ 0.0194 µM); in [4] (Staphylococcus aureus, PIA9), less than 0.016 µg/mL; in experiment [5] (setting [13]), 0.016 µg/mL (≈ 0.0194 µM); in [6] (setting [14]) it was less than 0.016 µg/mL; in experiment [7] (Staphylococcus aureus, PIA90) it was 0.016 µg/mL (≈ 0.0194 µM).

gentamicin: the MIC in experiment [2] (planktonic, SH TUH 51-03) stood at 64 µg/mL; in experiment [3] (planktonic, SH TUH 51-07) it was 64 µg/mL; in [4] (planktonic, SA PIA 9), 1 µg/mL; in experiment [5] (planktonic, SE TUH 08-16), 256 µg/mL; in experiment [6] (setting [10]) it was 8 µg/mL; in experiment [7] (planktonic, SA PIA90), 0.5 µg/mL. For the same molecule, the “susceptibility under planktonic growth” value in experiment [9] (setting [15]) is “resistant”; in experiment [9] (the two S. aureus strains), “susceptible”.
